Data reported in patent US12215099B2, “Quinolinone and benzoxazine derivatives as muscarinic M1 and/or M4 receptor agonists” (Nxera Pharma UK Limited, priority 2018, dated 2025).

Key:
Type in all cases: cell-based
[1] = target: T1, human muscarinic M3 receptor (Homo sapiens, UniProt P20309); test: Alphascreen Surefire phospho-ERK1/2 functional assay, M3; conditions: for EC50: CHO cells stably expressing human M3, agonist 5 min, 37° C., read-out: pEC50 M3 (converted); for Emax: CHO, read-out: % Emax cf. ACh, M3
T1 construct: expressed in transfected cells
Experimental: (§1) ERK1/2 phosphorylation is a downstream consequence of both Gq/11 and Gi/o protein coupled receptor activation, making it highly suitable for the assessment of M1, M3 (Gq/11 coupled) and M2, M4 receptors (Gi/o coupled), rather than using different assay formats for different receptor subtypes. CHO cells stably expressing the human muscarinic M1, M2, M3 or M4 receptor were plated (25K/well) onto 96-well tissue culture plates in MEM-alpha+10% dialysed FBS. Once adhered, cells were serum-starved overnight. Agonist stimulation was performed by the addition of 5 μL agonist to the cells for 5 min (37° C.). Media was removed and 50 μL of lysis buffer added. After 15 min, a 4 μL sample was transferred to 384-well plate and 7 μL of detection mixture added. Plates were incubated for 2 h with gentle agitation in the dark and then read on a PHERAstar plate reader.
(§2) pEC50 and Emax figures were calculated from the resulting data for each receptor subtype.

[2] = target: T2, human muscarinic M1 receptor (Homo sapiens, UniProt P11229); test: Alphascreen Surefire phospho-ERK1/2 functional assay, M1; conditions: for EC50: CHO cells stably expressing human M1, agonist 5 min, 37° C., read-out: pEC50 M1 (converted); for Emax: CHO, read-out: % Emax cf. ACh, M1
T2 sequence (P11229 1-460): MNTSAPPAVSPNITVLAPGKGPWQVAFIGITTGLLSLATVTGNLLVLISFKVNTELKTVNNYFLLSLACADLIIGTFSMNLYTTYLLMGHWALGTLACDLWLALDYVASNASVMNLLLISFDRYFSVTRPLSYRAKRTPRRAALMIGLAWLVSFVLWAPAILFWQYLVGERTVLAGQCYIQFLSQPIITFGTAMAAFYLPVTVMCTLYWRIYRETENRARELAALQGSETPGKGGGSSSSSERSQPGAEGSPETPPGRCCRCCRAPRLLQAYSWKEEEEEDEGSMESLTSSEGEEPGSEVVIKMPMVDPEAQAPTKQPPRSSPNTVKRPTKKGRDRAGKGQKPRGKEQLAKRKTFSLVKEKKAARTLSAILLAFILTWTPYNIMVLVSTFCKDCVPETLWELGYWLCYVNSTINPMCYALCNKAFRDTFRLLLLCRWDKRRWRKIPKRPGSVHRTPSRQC
Experimental: as §1, §2

[3] = target: T3, human muscarinic M2 receptor (Homo sapiens, UniProt P08172); test: Alphascreen Surefire phospho-ERK1/2 functional assay, M2; conditions: for EC50: CHO cells stably expressing human M2, agonist 5 min, 37° C., read-out: pEC50 M2 (converted); for Emax: CHO, read-out: % Emax cf. ACh, M2
T3 sequence (P08172 1-466): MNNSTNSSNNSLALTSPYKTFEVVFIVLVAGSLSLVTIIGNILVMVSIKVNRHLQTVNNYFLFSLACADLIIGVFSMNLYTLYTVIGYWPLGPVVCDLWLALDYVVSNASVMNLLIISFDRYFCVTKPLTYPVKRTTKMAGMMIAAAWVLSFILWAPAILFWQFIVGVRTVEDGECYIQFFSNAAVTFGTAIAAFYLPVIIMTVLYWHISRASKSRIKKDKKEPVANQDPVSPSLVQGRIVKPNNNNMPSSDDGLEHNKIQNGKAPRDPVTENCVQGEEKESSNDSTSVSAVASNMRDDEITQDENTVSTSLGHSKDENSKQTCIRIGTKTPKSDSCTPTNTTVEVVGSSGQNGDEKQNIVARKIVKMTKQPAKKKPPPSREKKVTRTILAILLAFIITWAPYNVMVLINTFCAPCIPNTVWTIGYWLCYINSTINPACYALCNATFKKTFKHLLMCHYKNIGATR
Experimental: as §1, §2

[4] = target: T4, human muscarinic M4 receptor (Homo sapiens, UniProt P08173); test: Alphascreen Surefire phospho-ERK1/2 functional assay, M4; conditions: for EC50: CHO cells stably expressing human M4, agonist 5 min, 37° C., read-out: pEC50 M4 (converted); for Emax: CHO, read-out: % Emax cf. ACh, M4
T4 construct: expressed in transfected cells
T4 sequence (P08173 1-479): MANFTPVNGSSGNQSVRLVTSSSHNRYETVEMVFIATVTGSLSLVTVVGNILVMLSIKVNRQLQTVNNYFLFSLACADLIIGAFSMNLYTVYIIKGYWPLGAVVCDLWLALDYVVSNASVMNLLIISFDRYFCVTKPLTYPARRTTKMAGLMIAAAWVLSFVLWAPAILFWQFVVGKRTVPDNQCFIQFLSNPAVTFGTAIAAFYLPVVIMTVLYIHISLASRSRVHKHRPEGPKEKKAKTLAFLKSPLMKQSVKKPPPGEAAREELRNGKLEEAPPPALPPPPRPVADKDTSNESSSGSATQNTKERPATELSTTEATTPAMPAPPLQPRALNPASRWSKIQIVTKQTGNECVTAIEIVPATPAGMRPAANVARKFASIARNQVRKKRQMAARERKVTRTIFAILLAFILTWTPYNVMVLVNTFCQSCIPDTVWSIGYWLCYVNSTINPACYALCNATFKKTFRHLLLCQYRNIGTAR
Experimental: as §1, §2

T1 sequence (P20309 whole entry): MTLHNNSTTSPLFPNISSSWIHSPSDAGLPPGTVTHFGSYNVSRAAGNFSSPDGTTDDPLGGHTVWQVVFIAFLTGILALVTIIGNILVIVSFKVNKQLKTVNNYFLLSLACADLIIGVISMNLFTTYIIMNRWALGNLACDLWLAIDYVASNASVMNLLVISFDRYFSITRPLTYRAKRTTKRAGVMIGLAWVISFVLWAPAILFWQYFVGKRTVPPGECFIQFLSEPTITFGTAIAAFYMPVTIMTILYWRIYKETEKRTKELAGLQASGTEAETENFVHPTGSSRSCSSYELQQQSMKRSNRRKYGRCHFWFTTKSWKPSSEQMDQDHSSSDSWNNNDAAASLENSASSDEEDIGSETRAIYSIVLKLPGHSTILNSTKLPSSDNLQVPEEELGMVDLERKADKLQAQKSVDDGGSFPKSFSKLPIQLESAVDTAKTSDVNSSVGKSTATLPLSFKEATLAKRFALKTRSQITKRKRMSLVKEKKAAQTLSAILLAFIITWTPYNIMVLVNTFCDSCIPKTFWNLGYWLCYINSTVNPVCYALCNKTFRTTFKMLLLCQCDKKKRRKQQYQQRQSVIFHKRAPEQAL

Compound | EC50 [2] [µM] | Emax [2] [%] | EC50 [4] [µM] | Emax [4] [%] | EC50 [1] [µM] | Emax [1] [%] | EC50 [3] [µM] | Emax [3] [%]
O=C1CCc2ccccc2N1CCCN1[C@@H]2CC[C@H]1CC(CCOC1=NOCC1)C2 (stereo partly drawn) [Example 3, 1-(3-((1R,5S)-3-(2-((4,5-dihydroisoxazol-3-yl)oxy)ethyl)-8-azabicyclo[3.2.1]octan-8-yl)propyl)-3,4-dihydroquinolin-2(1H)-one] | 0.1 | 37 | > 20 | 53 |  |  |  | 
O=C1CCc2ccccc2N1CCCN1C2CCC1CC(CCCOC1=NOCC1)C2 (centres unmarked) [Example 4, 1-(3-(3-(3-((4,5-dihydroisoxazol-3-yl)oxy)propyl)-8-azabicyclo[3.2.1]octan-8-yl)propyl)-3,4-dihydroquinolin-2(1H)-one] | 0.00316 | 71 | > 20 | 11 | > 20 | 0 | > 20 | 29
O=C1CCc2ccccc2N1CCCN1[C@@H]2CC[C@H]1C[C@@H](OCCOC1=NOCC1)C2 [Example 5, 1-(3-(3-(2-((4,5-dihydroisoxazol-3-yl)oxy)ethoxy)-8-azabicyclo[3.2.1]octan-8-yl)propyl)-3,4-dihydroquinolin-2(1H)-one] | 0.00631 | 62 | > 20 | 19 | > 20 | 46 | > 20 | 16
O=C1CCc2ccccc2N1CCCN1[C@@H]2CC[C@H]1CN(CCCOC1=NOCC1)C2 [Example 6, 1-(3-((1R,5S)-3-(3-((4,5-dihydroisoxazol-3-yl)oxy)propyl)-3,8-diazabicyclo[3.2.1]octan-8-yl)propyl)-3,4-dihydroquinolin-2(1H)-one] | < 0.000631 | 103 | > 20 | 32 | > 0.2 | 0 | > 0.2 | 6
c1ccc2c(c1)CCCN2CCCN1C2CCC1CC(CCCOC1=NOCC1)C2 (centres unmarked) [Example 9, 3-(3-(8-(3-(3,4-dihydroquinolin-1(2H)-yl)propyl)-8-azabicyclo[3.2.1]octan-3-yl)propoxy)-4,5-dihydroisoxazole] | 0.0251 | 40 | > 20 | 16 | > 20 | 21 | > 20 | 28
O=C1CCON1CCCC1C[C@@H]2CC[C@@H](C1)N2CCCN1C(=O)CCc2ccccc21 (stereo partly drawn) [Example 13, 2-(3-((1S,5S)-8-(3-(2-oxo-3,4-dihydroquinolin-1(2H)-yl)propyl)-8-azabicyclo[3.2.1]octan-3-yl)propyl)isoxazolidin-3-one] | 0.1 | 62 | > 20 | 12 | > 20 | 8 | > 20 | 9

Now from value to compound, other results behind:

EC50 [2] [µM] | Emax [2] [%] | EC50 [4] [µM] | Emax [4] [%] | Compound | EC50 [1] [µM] | Emax [1] [%] | EC50 [3] [µM] | Emax [3] [%]
0.0631 | 92 | > 20 | 19 | O=C1CCc2ccccc2N1CCCN1CCC(CCOC2=NOCC2)CC1 [Example 1, 1-(3-(4-(2-((4,5-dihydroisoxazol-3-yl)oxy)ethyl)piperidin-1-yl)propyl)-3,4-dihydroquinolin-2(1H)-one] | > 20 | 0 | > 20 | 1
0.00316 | 98 | > 20 | 10 | O=C1CCc2ccccc2N1CCCN1CCC(CCCCOC2=NOCC2)CC1 [Example 2, 1-(3-(4-(4-((4,5-dihydroisoxazol-3-yl)oxy)butyl)piperidin-1-yl)propyl)-3,4-dihydroquinolin-2(1H)-one] | > 20 | 7 | > 20 | 3
0.251 | 62 | > 20 | 8 | O=C1COc2cc(F)ccc2N1CCCN1CCC(CCOC2=NOCC2)CC1 [Example 7, 4-(3-(4-(2-((4,5-dihydroisoxazol-3-yl)oxy)ethyl)piperidin-1-yl)propyl)-7-fluoro-2H-benzo[b][1,4]oxazin-3(4H)-one] |  |  |  | 
0.01 | 102 | 0.0251 | 25 | O=C1COc2cc(F)ccc2N1CCCN1CCC(CCCCOC2=NOCC2)CC1 [Example 8, 4-(3-(4-(4-((4,5-dihydroisoxazol-3-yl)oxy)butyl)piperidin-1-yl)propyl)-7-fluoro-2H-benzo[b][1,4]oxazin-3(4H)-one] | > 20 | 3 | > 20 | 4
0.794 | 73 | > 20 | 13 | O=C1CCON1CCC1CCN(CCCN2C(=O)CCc3ccccc32)CC1 [Example 10, 2-(2-(1-(3-(2-oxo-3,4-dihydroquinolin-1(2H)-yl)propyl)piperidin-4-yl)ethyl)isoxazolidin-3-one] |  |  |  | 
0.01 | 92 | > 20 | 10 | O=C1CCON1CCCCC1CCN(CCCN2C(=O)CCc3ccccc32)CC1 [Example 11, 2-(4-(1-(3-(2-oxo-3,4-dihydroquinolin-1(2H)-yl)propyl)piperidin-4-yl)butyl)isoxazolidin-3-one] | > 20 | 7 | > 20 | 4
0.02 | 41 | > 20 | 5 | O=C1CCON1CCCCCC1CCN(CCCN2C(=O)CCc3ccccc32)CC1 [Example 12, 2-(5-(1-(3-(2-oxo-3,4-dihydroquinolin-1(2H)-yl)propyl)piperidin-4-yl)pentyl)isoxazolidin-3-one] | > 20 | 1 | > 20 | 2
